Results from ChEMBL document CHEMBL4382204 (Eur J Med Chem, 2018).

What was measured:
[1] = Half life in Sprague-Dawley rat at 10 mg/kg, po by LC-MS/MS analysis; assay type: ADME, organism-based; conditions: in vivo
[2] = AUC (0 to infinity) in Sprague-Dawley rat at 1 mg/kg, iv by LC-MS/MS analysis; assay type: ADME, organism-based; set-up: dose 1 mg/kg, time infinity, route intravenous; conditions: in vivo
[3] = biological target: Receptor-type tyrosine-protein kinase FLT3 (Homo sapiens) (UniProt P36888); assay: Inhibition of wild type C-terminal FLAG-tagged human TEL fused FLT3 (unknown origin) transfected in mouse BAF3 cells assessed as growth inhibition after 72 hrs by CCK8 assay; assay type: cell-based
Chain of Receptor-type tyrosine-protein kinase FLT3 (Homo sapiens) (P36888 whole entry, the tested form may be a part): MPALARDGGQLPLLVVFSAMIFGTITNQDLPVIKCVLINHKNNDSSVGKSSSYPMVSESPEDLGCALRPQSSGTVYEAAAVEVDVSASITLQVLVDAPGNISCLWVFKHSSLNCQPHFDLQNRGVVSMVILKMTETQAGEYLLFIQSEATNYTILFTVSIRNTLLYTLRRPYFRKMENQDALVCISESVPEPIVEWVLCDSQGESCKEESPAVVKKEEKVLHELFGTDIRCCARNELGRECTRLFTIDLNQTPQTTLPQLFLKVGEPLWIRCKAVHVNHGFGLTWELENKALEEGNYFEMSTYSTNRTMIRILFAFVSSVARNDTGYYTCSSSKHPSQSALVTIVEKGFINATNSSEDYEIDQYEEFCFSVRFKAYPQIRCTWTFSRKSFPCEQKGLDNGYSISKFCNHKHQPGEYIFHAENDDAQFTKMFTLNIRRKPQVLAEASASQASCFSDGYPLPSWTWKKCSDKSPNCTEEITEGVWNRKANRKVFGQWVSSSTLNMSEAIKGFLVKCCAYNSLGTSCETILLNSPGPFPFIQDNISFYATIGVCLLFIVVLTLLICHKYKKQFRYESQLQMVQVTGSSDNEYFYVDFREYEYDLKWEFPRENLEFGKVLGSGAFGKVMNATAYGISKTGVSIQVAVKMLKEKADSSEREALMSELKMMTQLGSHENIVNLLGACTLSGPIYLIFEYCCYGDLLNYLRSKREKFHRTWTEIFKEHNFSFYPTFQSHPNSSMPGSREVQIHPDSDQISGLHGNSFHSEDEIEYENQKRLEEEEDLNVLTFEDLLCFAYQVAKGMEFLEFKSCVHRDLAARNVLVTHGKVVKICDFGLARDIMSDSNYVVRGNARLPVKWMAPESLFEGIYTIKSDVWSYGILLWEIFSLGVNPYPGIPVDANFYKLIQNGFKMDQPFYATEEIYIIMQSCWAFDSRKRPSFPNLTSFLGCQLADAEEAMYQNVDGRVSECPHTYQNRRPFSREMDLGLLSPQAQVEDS

SMILES: CN1CCN(Cc2ccc(NC(=O)CCSc3ccc4c(/C=C/c5ccccn5)n[nH]c4c3)cc2C(F)(F)F)CC1
- half-life [1]: 2.6 h
- AUC(0-inf) [2]: 202 ng·h/mL
- GI50 [3]: 4 nM
